Laboratory results taken from patent publication US5449662A, “Atrial natriuretic peptide clearance inhibitors which resist degradation” (Scios Nova Inc., priority 1992, dated 1995).

System: Female Sprague-Dawley rats
Test: In vivo diuresis and natriuresis in anesthetized rats
Set-up: species or system rat
Conditions: 300 ng/kg/min infusion, mean ± SE, n = 7
Protocol: The ability of analog #1 to effect diuresis and natriuresis in whole animals was determined as follows. Female Sprague-Dawley rats (230-260 g) anesthetized with inactin (100 mg/kg body weight) were catheterized by placing cannulae in femoral artery (B.P. monitoring), femoral vein (infusion of drugs and saline) and bladders (collection of urine). Post surgery, and prior to administration of test substance, saline was infused at 20 ul/min for 45 min in order to stabilize urine flow. Stabilization of urine flow was determined by collection of urine during several 10 min periods. Once stable urine flow was obtained, three 10 min control periods were collected followed by infusion of test compounds at 20 ul/min for 1 hr after priming with 10 times the infusion dose. Following experimental infusion period, saline was infused at 20 ul/min for 2 additional hr during the recovery phase. The urine volume collected during ten minute collection periods was determined gravimetrically. Urinary sodium excretion UNa V was determined photometrically.
Analog #1 infused at 10 ug/kg/min gives a mean 10-fold increase in urinary sodium excretion and a 2- to 3-fold increase in urinary flow rate. Maximal effects are not observed until the second or third experimental collection period and are sustained through the infusion.

## hANP(102-126): human atrial natriuretic peptide 102-126, comparison in rat diuresis/natriuresis (WDSSDRSALLKSKLRALLTAPRSLR; Atrial natriuretic factor; UniProt P01160 102-126, looked up, fragment)
  UNa V (urinary sodium excretion), difference between experimental and control periods: 2.24 ± 0.77 uEq/min
  V (urine flow), difference between experimental and control periods: 16.8 ± 9.3 µL/min
